According to ChEMBL document CHEMBL5247655, “Simplified Derivatives of Tetrandrine as Potent and Specific P-gp Inhibitors to Reverse Multidrug Resistance in Cancer Chemotherapy” (J Med Chem, 2023):
pIC50: −log10 of the molar value. Active and inactive are the calls of the source. No cut-off for these calls is given here.

Columns and labels:
[1] = biological target: T1, ATP-dependent translocase ABCB1 (Homo sapiens, UniProt P08183); experiment: Inhibition of P-gp efflux in vincristine resistant human Eca-109 cells assessed as increase in rhodamine 123 fluorescence intensity at 30 uM; format: cell-based; settings: eca-109, 30 µM, TDE = time-dependent effect, time 0-5 hrs
ECa-109 cell line [2] = experiment: Reversal of VCR -resistance in human Eca-109 cells assessed as cell viability at 1 uM incubated for 48 hrs by CCK-8 method (reference value: 6830.0+/-537.0 nM); format: functional, cell-based; settings: ECa-109, 48 h
ECa-109 cell line [3] = experiment: Reversal of vincristine-resistance in human Eca-109 cells assessed as fold reversal by measuring cell viability at 2.5 uM incubated for 48 hrs by CCK-8 method relative to vincristine alone; format: functional
[4] = AUMC (0 to infinity) in Sprague-Dawley rat at 30 mg/kg, po measured upto 24 hrs by UPLC/MS/MS analysis; format: ADME, organism-based; settings: in vivo
ECa-109 cell line [5] = experiment: Induction of apoptosis in vincristine resistant human Eca-109 cells assessed as viable cells at 2.5 uM incubated for 24 hrs by AnnexinV-FITC/PI staining based flow cytometric analysis (reference value: 90.3%); format: functional; settings: read-out: Activity
[6] = MRT (0 to infinity) in Sprague-Dawley rat at 30 mg/kg, po measured upto 24 hrs by UPLC/MS/MS analysis; format: ADME, organism-based; settings: in vivo
[7] = Tmax in Sprague-Dawley rat at 30 mg/kg, po measured upto 24 hrs by UPLC/MS/MS analysis; format: ADME, organism-based; settings: in vivo
[8] = Half life in Sprague-Dawley rat at 30 mg/kg, po measured upto 24 hrs by UPLC/MS/MS analysis; format: ADME, organism-based; settings: in vivo
ECa-109 cell line [9] = experiment: Induction of apoptosis in vincristine resistant human Eca-109 cells assessed as necrotic cells at 2.5 uM incubated for 24 hrs in presence of vincristine by AnnexinV-FITC/PI staining based flow cytometric analysis (reference value: 0.35%); format: functional
ECa-109 cell line [10] = experiment: Induction of apoptosis in vincristine resistant human Eca-109 cells assessed as viable cells at 2.5 uM incubated for 24 hrs in presence of vincristine by AnnexinV-FITC/PI staining based flow cytometric analysis (reference value: 89.2%); format: functional; settings: read-out: Activity
[11] = Cytotoxicity against human LX2 cells incubated for 48 hrs by CCK-8 method; format: toxicity, cell-based, LX-2
[12] = biological target: T1, ATP-dependent translocase ABCB1; experiment: Inhibition of P-gp efflux in vincristine resistant human Eca-109 cells assessed as increase in intracellular accumulation of calcein-AM at 1 to 5 uM incubated for 1 hr by flow cytometry analysis; format: cell-based; settings: eca-109, 1 h, dose 1-5 µM
ECa-109 cell line [13] = experiment: Induction of apoptosis in vincristine resistant human Eca-109 cells assessed as early apoptotic cells at 5 uM incubated for 24 hrs in presence of vincristine by AnnexinV-FITC/PI staining based flow cytometric analysis (reference value: 4.43%); format: functional
ECa-109 cell line [14] = experiment: Synergistic antitumor activity against in vincristine resistant p-gp overexpressing human Eca-109 cells xenografted in nude mouse assessed as increase in nuclear pyknosis at 30 mg/kg, IG administered every two days for 21 days in presence of vincristine by TUNEL analysis; format: functional, organism-based; settings: time 21.0 day
[15] = Toxicity in nude mouse assessed as change in body weight at 30 mg/kg administered every 2 days for 21 days; format: organism-based; settings: in vivo, 48 h, time 2 day
ECa-109 cell line [16] = experiment: Induction of apoptosis in vincristine resistant human Eca-109 cells assessed as late apoptotic cells at 1 uM incubated for 24 hrs by AnnexinV-FITC/PI staining based flow cytometric analysis (reference value: 7.19%); format: functional
ECa-109 cell line [17] = experiment: Reversal of VCR -resistance in human Eca-109 cells assessed as cell viability at 5 uM incubated for 48 hrs by CCK-8 method (reference value: 6830.0+/-537.0 nM); format: functional, cell-based; settings: ECa-109, 48 h
ECa-109 cell line [18] = experiment: Induction of apoptosis in vincristine resistant human Eca-109 cells assessed as viable cells at 5 uM incubated for 24 hrs in presence of vincristine by AnnexinV-FITC/PI staining based flow cytometric analysis (reference value: 89.2%); format: functional; settings: read-out: Activity
[19] = Oral bioavailability in Sprague-Dawley rat at 30 mg/kg measured upto 24 hrs by UPLC/MS/MS analysis; format: ADME, organism-based; settings: in vivo
[20] = Cytotoxicity against human HK-2 cells incubated for 48 hrs by CCK-8 method; format: toxicity, cell-based
[21] = AUC (0 to t) in Sprague-Dawley rat at 3 mg/kg, iv measured upto 24 hrs by UPLC/MS/MS analysis; format: ADME, organism-based; set-up: time < 24 hrs, dose 3 mg/kg, route iv; settings: in vivo
[22] = biological target: T1, ATP-dependent translocase ABCB1; experiment: Inhibition of P-gp efflux in vincristine resistant human Eca-109 cells assessed as increase in colocalization of dox with nucleus at 1 to 5 uM incubated for 3 hrs by DAPI staining based laser-scanning confocal microscopy analysis; format: cell-based; settings: eca-109, 3 h, dose 1-5 µM
[23] = biological target: T1, ATP-dependent translocase ABCB1; experiment: Inhibition of P-gp efflux in vincristine resistant human Eca-109 cells assessed as effect on accumulation of rhodamine123; format: cell-based
ECa-109 cell line [24] = experiment: Induction of apoptosis in vincristine resistant human Eca-109 cells assessed as viable cells at 5 uM incubated for 24 hrs by AnnexinV-FITC/PI staining based flow cytometric analysis (reference value: 90.3%); format: functional; settings: read-out: Activity
ECa-109 cell line [25] = experiment: Reversal of vincristine-resistance in human Eca-109 cells assessed as fold reversal by measuring cell viability incubated for 48 hrs by CCK-8 method relative to vincristine alone; format: functional
ECa-109 cell line [26] = experiment: Induction of apoptosis in vincristine resistant human Eca-109 cells assessed as early apoptotic cells at 2.5 uM incubated for 24 hrs by AnnexinV-FITC/PI staining based flow cytometric analysis (reference value: 2.30%); format: functional
ECa-109 = experiment: Downregulation of P-gp expression in vincristine resistant human Eca-109 cells at 2.5 to 10 uM incubated for 24 hrs by Western blot analysis; format: functional, cell-based; settings: dose 2.5-10 µM
ECa-109 cell line [27] = experiment: Cytotoxicity against vincristine resistant human Eca-109 cells incubated for 48 hrs by CCK-8 method; format: functional, cell-based; settings: ECa-109, 48 h
ECa-109 cell line [28] = experiment: Cytotoxicity against human Eca-109 cells incubated for 48 hrs by CCK-8 method; format: functional, cell-based; settings: ECa-109, 48 h
ECa-109 cell line [29] = experiment: Induction of apoptosis in vincristine resistant human Eca-109 cells assessed as necrotic cells at 1 uM incubated for 24 hrs by AnnexinV-FITC/PI staining based flow cytometric analysis (reference value: 0.25%); format: functional
[30] = biological target: Multidrug resistance-associated protein 1 (Homo sapiens, UniProt P33527); experiment: Binding affinity to MRP1 in vincristine resistant human Eca-109 cells assessed as stabilization of protein at 100 uM incubated for 30 mins by thermal shift assay; format: cell-based; settings: eca-109, 0.5 h
ECa-109 cell line [31] = experiment: Synergistic antitumor activity against in vincristine resistant p-gp overexpressing human Eca-109 cells xenografted in nude mouse assessed as increase in apoptosis at 30 mg/kg, IG administered every two days for 21 days in presence of vincristine by TUNEL analysis; format: functional, organism-based; settings: time 21.0 day
ECa-109 cell line [32] = experiment: Induction of apoptosis in vincristine resistant human Eca-109 cells assessed as late apoptotic cells at 5 uM incubated for 24 hrs in presence of vincristine by AnnexinV-FITC/PI staining based flow cytometric analysis (reference value: 6.01%); format: functional

T1 sequence (P08183 whole entry): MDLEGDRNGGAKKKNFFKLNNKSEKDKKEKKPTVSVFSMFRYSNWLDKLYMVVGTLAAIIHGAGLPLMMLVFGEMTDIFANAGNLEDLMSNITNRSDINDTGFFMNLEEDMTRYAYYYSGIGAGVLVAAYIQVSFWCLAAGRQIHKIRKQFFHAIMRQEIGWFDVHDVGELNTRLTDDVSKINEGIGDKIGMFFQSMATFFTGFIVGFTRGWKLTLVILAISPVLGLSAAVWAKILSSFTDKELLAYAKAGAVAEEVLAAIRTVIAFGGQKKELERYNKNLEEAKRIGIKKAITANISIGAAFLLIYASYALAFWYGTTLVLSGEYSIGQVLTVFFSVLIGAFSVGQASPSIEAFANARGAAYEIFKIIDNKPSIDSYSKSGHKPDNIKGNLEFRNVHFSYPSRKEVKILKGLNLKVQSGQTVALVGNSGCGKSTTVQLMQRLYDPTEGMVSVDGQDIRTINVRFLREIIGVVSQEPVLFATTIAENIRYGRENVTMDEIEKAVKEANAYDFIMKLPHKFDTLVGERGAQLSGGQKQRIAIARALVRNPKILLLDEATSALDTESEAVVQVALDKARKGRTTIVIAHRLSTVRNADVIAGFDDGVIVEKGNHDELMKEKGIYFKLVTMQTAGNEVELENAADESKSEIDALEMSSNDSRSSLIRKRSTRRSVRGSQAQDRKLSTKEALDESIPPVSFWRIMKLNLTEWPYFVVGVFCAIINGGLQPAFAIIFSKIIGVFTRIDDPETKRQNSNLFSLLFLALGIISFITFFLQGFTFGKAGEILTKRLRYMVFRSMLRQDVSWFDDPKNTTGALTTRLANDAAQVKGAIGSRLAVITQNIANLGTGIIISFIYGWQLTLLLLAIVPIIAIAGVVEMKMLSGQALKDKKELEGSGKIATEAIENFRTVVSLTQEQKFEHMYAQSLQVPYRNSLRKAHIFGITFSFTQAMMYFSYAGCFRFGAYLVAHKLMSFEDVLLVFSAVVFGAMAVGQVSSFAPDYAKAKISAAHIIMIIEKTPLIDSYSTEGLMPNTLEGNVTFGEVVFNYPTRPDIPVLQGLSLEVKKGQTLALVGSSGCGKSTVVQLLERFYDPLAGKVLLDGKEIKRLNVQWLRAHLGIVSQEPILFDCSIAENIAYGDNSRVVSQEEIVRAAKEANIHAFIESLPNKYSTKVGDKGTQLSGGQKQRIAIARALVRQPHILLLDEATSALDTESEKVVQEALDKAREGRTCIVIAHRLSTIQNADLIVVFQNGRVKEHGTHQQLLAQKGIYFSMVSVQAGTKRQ
Chain of Multidrug resistance-associated protein 1 (P33527 whole entry): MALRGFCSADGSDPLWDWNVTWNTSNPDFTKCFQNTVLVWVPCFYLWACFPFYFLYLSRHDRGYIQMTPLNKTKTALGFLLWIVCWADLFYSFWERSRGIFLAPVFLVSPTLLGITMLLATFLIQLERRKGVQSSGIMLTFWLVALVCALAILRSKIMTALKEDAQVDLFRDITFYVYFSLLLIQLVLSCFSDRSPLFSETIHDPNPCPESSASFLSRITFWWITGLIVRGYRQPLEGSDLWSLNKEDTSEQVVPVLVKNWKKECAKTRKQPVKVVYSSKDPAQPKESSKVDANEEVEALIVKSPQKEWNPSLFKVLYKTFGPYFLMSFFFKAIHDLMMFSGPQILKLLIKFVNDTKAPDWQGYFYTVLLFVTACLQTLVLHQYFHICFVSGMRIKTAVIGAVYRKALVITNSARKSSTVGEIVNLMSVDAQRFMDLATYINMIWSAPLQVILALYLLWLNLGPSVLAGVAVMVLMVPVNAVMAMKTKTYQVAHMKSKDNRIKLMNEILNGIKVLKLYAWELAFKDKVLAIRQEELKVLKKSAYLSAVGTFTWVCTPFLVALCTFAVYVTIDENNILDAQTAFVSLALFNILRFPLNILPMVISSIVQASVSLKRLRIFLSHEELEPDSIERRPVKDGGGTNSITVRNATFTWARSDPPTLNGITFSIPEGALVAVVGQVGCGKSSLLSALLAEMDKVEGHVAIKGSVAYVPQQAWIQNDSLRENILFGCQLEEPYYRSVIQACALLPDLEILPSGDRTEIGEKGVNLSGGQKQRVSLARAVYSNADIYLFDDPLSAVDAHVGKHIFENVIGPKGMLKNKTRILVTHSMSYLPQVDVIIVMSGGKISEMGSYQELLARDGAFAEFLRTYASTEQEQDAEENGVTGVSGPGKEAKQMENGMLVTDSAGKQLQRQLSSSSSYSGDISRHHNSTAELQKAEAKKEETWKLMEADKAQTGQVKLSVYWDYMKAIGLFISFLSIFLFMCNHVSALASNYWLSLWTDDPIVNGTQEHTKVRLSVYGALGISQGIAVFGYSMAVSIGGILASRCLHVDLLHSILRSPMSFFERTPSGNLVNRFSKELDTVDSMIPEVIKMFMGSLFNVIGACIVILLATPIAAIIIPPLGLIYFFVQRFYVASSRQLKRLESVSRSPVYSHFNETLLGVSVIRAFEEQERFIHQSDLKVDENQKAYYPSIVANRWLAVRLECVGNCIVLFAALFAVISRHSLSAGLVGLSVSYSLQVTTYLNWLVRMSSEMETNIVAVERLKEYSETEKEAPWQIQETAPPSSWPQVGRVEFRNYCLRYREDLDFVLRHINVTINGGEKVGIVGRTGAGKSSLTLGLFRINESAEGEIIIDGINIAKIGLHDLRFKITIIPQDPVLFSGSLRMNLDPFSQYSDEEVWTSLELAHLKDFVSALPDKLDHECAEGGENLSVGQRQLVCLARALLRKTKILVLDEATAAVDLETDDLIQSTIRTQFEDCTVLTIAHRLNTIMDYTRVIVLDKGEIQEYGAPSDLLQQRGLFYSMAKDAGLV

COc1cc2c(cc1OC)C(Cc1ccc(OC)c(OCc3ccccc3)c1)N(C)CC2 (stereo not drawn)
inhibition (INH) [1]: Tde | pIC50 (ECa-109 cell line [2]): 5.73 | fold change (FC) (ECa-109 cell line [3]): 103.4 | AUMC [4]: 131110.55 ng/mL.hr^2 | viability at 2.5 µM (ECa-109 cell line [5]): 91.9% | MRT inf [6]: 4.89 h | Tmax [7]: 0.38 h | half-life [8]: 7.37 h | Activity (ECa-109 cell line [9]): 0.42% | viability at 2.5 µM (ECa-109 cell line [10]): 70.5% | IC50 at 48 h [11]: > 50 µM | inhibition (INH) [12]: Active | Activity (ECa-109 cell line [13]): 24.9% | Activity (ECa-109 cell line [14]): Active | Activity [15]: Non-Toxic | Activity (ECa-109 cell line [16]): 6.12% | pIC50 (ECa-109 cell line [17]): 8.00 | viability at 5 µM (ECa-109 cell line [18]): 64.5% | bioavailability [19]: 7.65% | IC50 at 48 h [20]: > 50 µM | AUC(0-t) at 24 h [21]: 2690 ng·h/mL | inhibition (INH) [22]: Active | inhibition (INH) [23]: Active | viability at 5 µM (ECa-109 cell line [24]): 90.8% | fold change (FC) (ECa-109 cell line [25]): 690.6 | Activity (ECa-109 cell line [26]): 2.26% | Activity (ECa-109): inactive | pIC50 (ECa-109 cell line [27]): < 4.00 | pIC50 (ECa-109 cell line [28]): < 4.00 | Activity (ECa-109 cell line [29]): 0.15% | Activity [30]: Not Active | Activity (ECa-109 cell line [31]): Active | Activity (ECa-109 cell line [32]): 9.81%
